Legend:
Bax = Bax (Homo sapiens, UniProt Q07812); test: In vitro pull-down assay of Fortilin-HA with Bax; type: binding; details: in vitro translated proteins, anti-HA pull-down
p53 = p53 (Homo sapiens, UniProt P04637); test: Coimmunoprecipitation of fortilin and p53 from U2OS cell lysates; type: binding; design: endogenous in cells; host or cells: U2OS
Procedure: As in example 2, studies were initiated to determine whether p53 and Fortilin specifically interact in U2OS cells. Six million U2OS cells stably expressing either HA-fortilin or HA-only were suspended in lysis-binding-wash buffer (50 mM HEPES, pH7.5, 70 mM KCl, 0.5 mM ATP, 5 mM MgSO4, 1 mM DTT, 0.1% NP40, 2 mg/mL BSA, Aprotinin, PMSF, MG132 and protease inhibitor cocktail). Cells were then mechanically disrupted by nitrogen excavitation method. Cleared total cell lysates were incubated with […] anti-HA antibody (3F10, Roche), followed by the incubation with anti-mouse IgG conjugated to magnetic beads (Dynal USA) and extensive wash with lysis-binding-wash buffer.
Further experiments were conducted to determine in vivo immunoprecipitation of fortilin by p53. Twenty million U2OS cells were suspended in lysis-binding buffer (50 mM HEPES, pH7.5, 70 mM KCl, 0.5 mM ATP, 5 mM MgSO4, 1 mM DTT, 0.001% NP40, 2 mg/mL BSA, Aprotinin, PMSF, MG132 and protease inhibitor cocktail). Cells were then mechanically disrupted by nitrogen excavitation method. Cleared total cell lysates were divided equally into two eppendorf tubes. To the first tube, anti-p53 antibody (DO-1, […]) was added, while […] control monoclonal antibody was added to the second tube. After incubation, formed complexes were precipitated by goat anti-mouse IgG conjugated to magnetic beads (Dynal USA), followed by extensive wash. […]

Bak = biological target: T1, Bak (Homo sapiens, UniProt Q16611); test: In vitro pull-down assay of Fortilin-HA with Bak; type: binding; details: in vitro translated proteins, anti-HA pull-down
T1 sequence (Q16611 1-211): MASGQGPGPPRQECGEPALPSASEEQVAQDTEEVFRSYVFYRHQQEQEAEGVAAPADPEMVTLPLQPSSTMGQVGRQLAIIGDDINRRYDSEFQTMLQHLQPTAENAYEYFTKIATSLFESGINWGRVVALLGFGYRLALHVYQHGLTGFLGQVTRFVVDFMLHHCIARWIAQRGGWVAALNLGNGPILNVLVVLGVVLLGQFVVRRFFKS

caspase 3-like activity = test: Assay of caspase 3-like activity in U2OS stable transfectants (Z-DEVD-AFC); type: cell-based
Procedure: Assay of caspase 3-like activity. Approximately 2×10^6 U2OS stable transfectants, either expressing Fortilin (U2OS.F) or harboring empty expression vector (U2OS.E), both of which have been characterized above, were challenged either with dimethyl sulfoxide (DMSO) (vehicle) or with etoposide at a final concentration of 10 μg/mL for 48 hours. Caspase 3-like activity was then determined as previously described (Mannick et al., 1999). In brief, cytosolic proteins were extracted in hypotonic cell lysis buffer (25 mM HEPES, pH 7.5, 5 mM MgCl2, 5 mM EDTA, 5 mM dithiothreitol, 0.05% phenylmethylsulfonyl fluoride [PMSF]; all from Sigma) by three cycles of freezing and thawing. The protein concentration of samples was determined by using a BioRad Bradford protein assay kit (BioRad). Ten micrograms of cytosolic extracts were added to caspase assay buffer (312.5 mM HEPES, pH 7.5, 31.25% sucrose, 0.3125% CHAPS) with Z-DEVD-AFC as substrates (CalBiochem, San Diego, Calif.). Release of 7-amido-4-(trifluoromethyl)coumarin (AFC) was quantified, after 2 hours of incubation at 37° C. (or, in the case of time course experiment, every 10 minutes), using a Fluoroskan system (Thermo-Labsystems, Helsinki, Finland) set to an excitation value of 355 nm and emission value of 525 nm. The results were expressed as relative fluorescence unit (R.F.U.) per microgram of protein.

Chain of Bax (Q07812 whole entry, species assumed): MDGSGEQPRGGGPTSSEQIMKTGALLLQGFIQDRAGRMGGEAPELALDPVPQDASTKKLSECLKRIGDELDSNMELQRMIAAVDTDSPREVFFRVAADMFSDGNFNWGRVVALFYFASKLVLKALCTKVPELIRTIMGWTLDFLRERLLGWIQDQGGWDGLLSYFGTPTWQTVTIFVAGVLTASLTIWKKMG
Chain of p53 (P04637 whole entry, species assumed): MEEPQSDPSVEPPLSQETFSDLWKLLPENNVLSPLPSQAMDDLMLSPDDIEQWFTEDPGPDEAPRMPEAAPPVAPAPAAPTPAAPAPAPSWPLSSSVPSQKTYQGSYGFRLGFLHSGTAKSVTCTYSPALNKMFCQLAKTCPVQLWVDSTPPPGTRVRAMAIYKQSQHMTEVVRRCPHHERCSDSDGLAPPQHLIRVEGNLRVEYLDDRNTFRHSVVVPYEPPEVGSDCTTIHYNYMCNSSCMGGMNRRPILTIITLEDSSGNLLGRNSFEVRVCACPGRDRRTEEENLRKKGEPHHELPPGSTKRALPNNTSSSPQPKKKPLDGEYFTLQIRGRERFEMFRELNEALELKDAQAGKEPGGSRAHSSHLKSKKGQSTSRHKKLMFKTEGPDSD

Fortilin: 172 amino acid anti-apoptotic polypeptide (SEQ ID NO:2), overexpressed from expression constructs or used as recombinant/in vitro translated protein
co-immunoprecipitation of Bax with Fortilin in vitro (Bax): not
co-precipitation of fortilin and p53 in vivo (p53): The presence of immunoprecipitated p53 was necessary and sufficient to co-precipitate fortilin
co-immunoprecipitation of Bak with Fortilin in vitro (Bak): not
inhibition of caspase-3-like activity, kinetics (caspase 3-like activity; U2OS cells, 10 μg/mL etoposide, signals every 10 minutes for 2 hours): significantly inhibited the caspase-3-like activity in U2OS cells at all time points
inhibition of caspase-3-like activity upon etoposide challenge (caspase 3-like activity; U2OS cells, etoposide 10 μg/mL 48 hours, vs empty vector): significantly inhibited the caspase-3-like activity in U2OS cells
caspase-3-like activity (caspase 3-like activity; U2OS stably expressing Fortilin (U2OS.F), absence of etoposide challenge (DMSO)): 283±22.6 R.F.U./μg protein
caspase-3-like activity index (caspase 3-like activity; U2OS stably expressing Fortilin (U2OS.F), etoposide 10 μg/mL 48 hours): 713.9±62.6 R.F.U./μg protein
